From paper PMC12153055 (Organometallics, 2025)

Tests used:
[1] = test system: 5′-biotinylated dsDNA oligomer (DNA, duplex) TGTAATCGTAGGTTGGTCCCATCACCCACC/GGTGGGTGATGGGACCAACCTACGATTACA; assay: SPR biosensor kinetics, immobilised DNA; conditions: PBS buffer; monoexponential fit, single site
[2] = test system: MCF7 human breast adenocarcinoma cells; assay: MTT cytotoxicity assay, MCF7 cells; format: cell-based; conditions: for IC50: MTT, 72 h exposure, mean ± SD of three experiments; for SI MCF7 MCF10A: selectivity index, values equal IC50 MCF10A / IC50 MCF7
Protocol: (§1) The stability of [1]-Cl-[4]-Cl was evaluated in aqueous phosphate-buffered solution (PBS, pH 7.4) using UV–visible spectroscopy. […] The cytotoxicity of the compounds was measured according to a standard MTT assay against human breast cancer (MCF7 and MCF7CR) and ovarian cancer (A2780 and A2780cis) cell lines, and also nontumorigenic MCF10A and human embryonic kidney HEK293T cells (Table ).
(§2) All cell lines were grown in a humidified 5% CO2 environment at 37 °C in dedicated media. Growth media comprised minimum essential medium (MEM) supplemented with 10% FBS, 1% sodium pyruvate, antibiotics, and antimycotic agents for MCF7. MCF10A cells were cultured in a DMEM/F12 Ham’s mixture supplemented with 5% equine serum, 20 ng/mL EGF, 10 μg/mL insulin, […], antibiotics, and antimycotics. MCF7-CR cells were grown in minimum essential medium (MEM), 10% FBS supplemented with 0.1 mg/mL cisplatin, sodium pyruvate, antibiotics, and antimycotics. A2780 and A2780cis cells were cultured in RPMI 1640 GlutaMAX, and HEK293T cells were cultured in DMEM GlutaMAX medium containing 10% heat-inactivated FBS and antibiotics. The effect exerted on cell viability by the compounds was determined using the 3-(4,5-dimethylthiazol-2-yl)-2,5-diphenyltetrazolium bromide (MTT) assay. After individual treatments with 0–100 μM of the compound for 72 h, MTT was added to the culture media at a final concentration of 0.5 mg/mL and incubated for 2 h at 37 °C. Cisplatin was used as a positive control. The medium was replaced with 100 μL of DMSO, and after 10 min, the optical density was recorded at 550 nm on a microplate reader. At least six cultures were used for each data point. Chemicals (Merck-Sigma, Milan, Italy) and plasticware (Corning, Milan, Italy) were cell culture grade.

[3] = test system: MCF7-CR cisplatin-resistant breast cancer cells; assay: MTT cytotoxicity assay, MCF7CR cells; format: cell-based, human; conditions: 72 h exposure, mean ± SD of three experiments
Protocol: as §1, §2

[4] = test system: A2780 human ovarian carcinoma cells; assay: MTT cytotoxicity assay, A2780 cells; format: cell-based; conditions: for IC50: MTT, 72 h exposure, mean ± SD of three experiments; for SI A2780 HEK293T: selectivity index, values equal IC50 HEK293T / IC50 A2780
Protocol: as §1, §2

[5] = test system: A2780cis cisplatin-resistant ovarian cancer cells; assay: MTT cytotoxicity assay, A2780cis cells; format: cell-based, human; conditions: 72 h exposure, mean ± SD of three experiments
Protocol: as §1, §2

[6] = test system: HEK293T human embryonic kidney cells; assay: MTT cytotoxicity assay, HEK293T cells; format: cell-based; conditions: 72 h exposure, mean ± SD of three experiments
Protocol: as §1, §2

[7] = test system: MCF10A nontumorigenic cells; assay: MTT cytotoxicity assay, MCF10A cells; format: cell-based, human; conditions: 72 h exposure, mean ± SD of three experiments
Protocol: as §1, §2

[8] = test system: dsDNA oligomer; assay: SPR biosensor binding to surface-anchored dsDNA oligomer; conditions: surface-blocked DNA oligomer; for Kd: equilibrium dissociation constant
Protocol: The DNA binding ability of curcuminoid ligands and their complexes was evaluated by using a Surface plasmon resonance (SPR) biosensor. The monoexponential nature of binding kinetics for all the compounds is consistent with the presence of a single high-affinity site on DNA (Figure ).
The binding kinetics/affinities of the molecules of interest for DNA were studied according to a previously described biosensor-based method. Briefly, streptavidin was anchored to a carboxylate surface via EDC/NHS chemistry, and 5′-biotinylated dsDNA oligomer (sequence: 3′-[…]-5′) was coupled to surface-blocked streptavidin. Compounds were independently added to the DNA-coated surface at different concentrations, each time following binding kinetics up to equilibrium. PBS buffer was used for both the dissociation and the regeneration steps. Experimental data were fitted to both mono- and biexponential models, and the validity of each model was assessed by a standard F-test procedure. The binding sites on DNA were mapped according to independent competitive binding assays individually using a minor groove binder (GelRed) and a major groove binder (methyl green), respectively. Briefly, GelRed displacement was monitored by comparing the emission spectra of solutions containing different concentrations of curcuminoid-like ligands/complexes (0–100 μM), 20 μM DNA, and GelRed (10 μM) in 10 mM phosphate buffer, pH 7.4. Similarly, methyl green displacement assay was performed by monitoring the absorbance at 630 nm upon addition of candidate competitors (0–100 μM), 100 μM DNA, and methyl green (10 μM) in 50 mM Tris–HCl buffer and 7.5 mM MgSO4, pH 7.5.

[9] = biological target: 20S proteasome chymotrypsin-like activity (Homo sapiens, UniProt P28074); assay: Isolated 20S proteasome, chymotrypsin-like activity (Suc-Leu-Leu-Val-Tyr-AMC); format: biochemical; conditions: 0–100 μM, 1 h, 37 °C, pH 8.0
Protocol: (§3) Proteasome inhibition by the compounds was evaluated with respect to three major activities of the 20S proteasome, namely, chymotrypsin-like, trypsin-like, and caspase-like activities.
(§4) The effect of the compounds on the activity of the isolated 20S proteasome was tested using specific synthetic fluorogenic peptide substrates (Suc-Leu-Leu-Val-Tyr-AMC, Z-Leu-Ser-Thr-Arg-AMC, and Z-Leu-Leu-Glu-AMC for chymotrypsin-like, trypsin-like, and peptidyl glutamyl peptide hydrolase activity, respectively) as reported elsewhere. Briefly, individual mixtures consisting of the compounds (0–100 μM), 1 μg of isolated 20S proteasome, the specific substrate, and 50 mM Tris–HCl pH 8.0 up to a final volume of 100 μL were incubated at 37 °C, and after 1 h, the fluorescence measurements of the hydrolyzed AMC were recorded on a SpectraMax Gemini XPS microplate reader (λexc = 365 nm, λem = 449 nm).

[10] = biological target: 20S proteasome trypsin-like activity (Homo sapiens, UniProt Q99436); assay: Isolated 20S proteasome, trypsin-like activity (Z-Leu-Ser-Thr-Arg-AMC); format: biochemical; conditions: for IC50: 0–100 μM, 1 h, 37 °C, pH 8.0
Protocol: as §3, §4

[11] = biological target: 20S proteasome PGPH (caspase-like) activity (Homo sapiens, UniProt P28072); assay: Isolated 20S proteasome, peptidyl glutamyl peptide hydrolase (caspase-like) activity (Z-Leu-Leu-Glu-AMC); format: biochemical; conditions: 0–100 μM, 1 h, 37 °C, pH 8.0
Protocol: as §3, §4

[12] = test system: p62; assay: Western blot quantification of p62 in MCF7 cells; format: cell-based, human; conditions: 10 μM, 24 h
Protocol: Since no significant correlation emerged among cytotoxicity, DNA binding affinity, and proteasome inhibition, the effects of the treatment on the expression levels of p62 were evaluated. p62 is a multifunctional binding protein that is involved in signaling pathways of many cellular activities, including autophagy, whose abnormal expression is associated with malignancies, breast cancer in particular. […] This effect was more evident for the free ligand, in agreement with its higher cytotoxicity to breast cancer cells compared with that of the corresponding ruthenium complex (Figure ).
4 Representative autoradiographs (upper panel) and densitometric analyses (lower panel) of p62 levels in MCF7 cells treated with 10 μM of HZPbdcurc and [3]-Cl for 24 h (*p < 0.01 compared with the control; #p < 0.01 compared with [3]-Cl).
Semiquantitative analysis of p62 was performed by Western blotting upon individual 24 h treatments of MCF-7 cells with 10 μM of HZPbdcurc or [Ru(p-cym)(HZPbdcurc)-Cl]-Cl. Treated cells were lysed, and 15 μg of total protein was electrophoresed on 12% SDS-PAGE, then protein bands were electroblotted onto PVDF membranes (Millipore–Milan, Italy). After incubation with anti-p62 monoclonal antibody (Merck Sigma–Milan, Italy), the bands were immunodetected on a ChemiDoc MP imaging system (Bio-Rad - Milan, Italy). […] Western blot results were analyzed using Fiji software.

[13] = Solubility in water (qualitative); format: physicochemical

Row | Structure (SMILES) | KD [1] [µM] | IC50 [2] [µM] | IC50 [3] [µM] | IC50 [4] [µM] | IC50 [5] [µM] | IC50 [6] [µM] | SI A2780 HEK293T [4] | kass [8] [M^–1s^–1] | kdiss [8] [s^–1] | Kd [8] [µM] | IC50 [9] [µM] | IC50 [10] [µM] | IC50 [11] [µM] | solubility in water [13] | also measured
1 | COc1cc(/C=C/c2cc(/C=C/c3ccc(O)c(OC)c3)n(-c3ccccn3)n2)ccc1O | 4.5 ± 2.7 |  |  |  |  |  |  |  |  |  |  |  |  |  | 
2 | COc1cc(/C=C/c2cc(/C=C/c3ccc(O)c(OC)c3)n(-c3ccccn3)n2)ccc1O.Cc1ccc(C(C)C)cc1.[Cl-].[Os+2] | 4.2 ± 1.8 |  |  |  |  |  |  |  |  |  |  |  |  |  | 
3 | COc1cc(/C=C/c2cc(/C=C/c3ccc(O)c(OC)c3)n(-c3ccccn3)n2)ccc1O.Cc1ccc(C(C)C)cc1.[Cl-].[Ru+2] | 0.29 ± 0.14 |  |  |  |  |  |  |  |  |  |  |  |  |  | 
4 | Cc1ccc(C(C)C)cc1.Oc1ccc(/C=C/c2cc(/C=C/c3ccc(O)cc3)n(-c3ccccn3)n2)cc1.[Cl-].[Os+2] | 39.2 ± 17.0 |  |  |  |  |  |  |  |  |  |  |  |  |  | 
5 | Cc1ccc(C(C)C)cc1.Oc1ccc(/C=C/c2cc(/C=C/c3ccc(O)cc3)n(-c3ccccn3)n2)cc1.[Cl-].[Ru+2] | 2.2 ± 1.5 |  |  |  |  |  |  |  |  |  |  |  |  |  | 
6 | Oc1ccc(/C=C/c2cc(/C=C/c3ccc(O)cc3)n(-c3ccccn3)n2)cc1 | 17.0 ± 7.3 |  |  |  |  |  |  |  |  |  |  |  |  |  | 
7 | N.N.[Cl][Pt][Cl] [Cisplatin, reference compound] |  | 4.2 ± 2.3 | 49.1 ± 7 | 0.25 ± 0.02 | 7 ± 1 | 2.8 ± 0.5 |  |  |  |  |  |  |  |  | 
8 | Oc1ccc(/C=C/c2cc(/C=C/c3ccc(O)cc3)n(-c3ccccn3)n2)cc1 [HZPbdcurc, 4,4′-((1E,1′E)-(1-(pyridin-2-yl)-1H-pyrazole-3,5-diyl)bis(ethene-2,1-diyl))diphenol] |  |  |  |  |  |  | 2.13 | 1808 ± 740 | 0.031 ± 0.004 | 17 ± 7.3 | > 100 | > 100 | > 100 |  | IC50 ([2]; Homo sapiens, MCF7): 35.1 ± 3 µM; SI MCF7 MCF10A [2]: 0.28; IC50 ([3]; Homo sapiens): 25.9 ± 11 µM; IC50 ([7]; Homo sapiens, MCF-10A): 9.7 ± 6.5 µM; IC50 ([4]; Homo sapiens, A2780): 8 ± 1.2 µM; IC50 ([5]; Homo sapiens, A2780cis): 11.1 ± 2.9 µM; IC50 ([6]; Homo sapiens, HEK-293T): 17 ± 0.9 µM; p62 levels [12]: an increase in the levels of p62 was observed
9 | COc1cc(/C=C/c2cc(/C=C/c3ccc(O)c(OC)c3)n(-c3ccccn3)n2)ccc1O [HZPcurc, 4,4′-((1E,1′E)-(1-(pyridin-2-yl)-1H-pyrazole-3,5-diyl)bis(ethene-2,1-diyl))bis(2-methoxyphenol)] |  |  |  |  |  |  | 3.10 | 2994 ± 1142 | 0.013 ± 0.009 | 4.5 ± 2.7 | > 100 | > 100 | > 100 | insoluble in H2O | IC50 ([2]; Homo sapiens, MCF7): 23 ± 6 µM; SI MCF7 MCF10A [2]: 0.30; IC50 ([3]; Homo sapiens): 17.7 ± 3.6 µM; IC50 ([7]; Homo sapiens, MCF-10A): 7 ± 4.5 µM; IC50 ([4]; Homo sapiens, A2780): 5.3 ± 0.4 µM; IC50 ([5]; Homo sapiens, A2780cis): 6.7 ± 0.6 µM; IC50 ([6]; Homo sapiens, HEK-293T): 16.4 ± 0.6 µM
10 | COc1cc(/C=C/c2cc(/C=C/c3ccc(O)c(OC)c3)n(-c3ccccn3)n2)ccc1O.Cc1ccc(C(C)C)cc1.[Cl-].[Cl][Ru+] [[1]Cl, [Ru(p-cym)(HZPcurc)Cl]Cl] |  | 49.2 ± 5 | 41 ± 10 | 4.6 ± 0.3 | 6.6 ± 0.9 | 25 ± 1 | 5.43 | 32082 ± 773 | 0.009 ± 0.004 | 0.29 ± 0.14 | > 100 | 63 ± 7 | > 100 | soluble in polar solvents, including H2O | SI MCF7 MCF10A [2]: 0.64; IC50 [7]: 31.7 ± 10 µM; inhibition of the trypsin-like activity (in words) [10]: inhibition of the trypsin-like activity
11 | COc1cc(/C=C/c2cc(/C=C/c3ccc(O)c(OC)c3)n(-c3ccccn3)n2)ccc1O.Cc1ccc(C(C)C)cc1.[Cl-].[Cl][Os+] [[2]Cl, [Os(p-cym)(HZPcurc)Cl]Cl] |  | > 100 | > 100 | 6.3 ± 0.5 | 12.1 ± 0.6 | 25 ± 8 | 3.97 | 1156 ± 179 | 0.005 ± 0.002 | 4.2 ± 1.8 | 84 ± 60 | 51 ± 13 | > 100 | completely soluble | IC50 [7]: 25.6 ± 15 µM; inhibition of the trypsin-like activity (in words) [10]: inhibition of the trypsin-like activity
12 | Cc1ccc(C(C)C)cc1.Oc1ccc(/C=C/c2cc(/C=C/c3ccc(O)cc3)n(-c3ccccn3)n2)cc1.[Cl-].[Cl][Os+] [[4]Cl, [Os(p-cym)(HZPbdcurc)Cl]Cl] |  | > 100 | > 100 | 2.4 ± 0.4 | 5.4 ± 0.3 | 32 ± 2 | 13.33 | 266 ± 102 | 0.010 ± 0.002 | 39.2 ± 17 | 98 ± 50 | 61 ± 44 | > 100 | partly soluble in H2O | IC50 [7]: 25.8 ± 10 µM; inhibition of the trypsin-like activity (in words) [10]: inhibition of the trypsin-like activity
